Reference: ChEMBL document CHEMBL1150928, “A new antitubercular mulinane diterpenoid from Azorella madreporica Clos” (J Nat Prod, 1998)
≈ marks a conversion by molar mass, not a printed value.

Experiments:
Vero = experiment: Cytotoxicity against african green monkey Vero cells; type: cell-based; conditions: Chlorocebus sabaeus
[1] = system: Mycobacterium tuberculosis; experiment: Antitubercular activity against Mycobacterium tuberculosis H37Rv ATCC 27294; type: functional

SMILES | IC50 (Vero) [µg/mL] | MIC [1] [µg/mL]
CC(C)[C@H]1CC[C@@H]2[C@]1(C)CC[C@@]1(C)CC[C@@](C)(O)[C@@H]3C[C@@]231 | 184 (≈ 633 µM) | 20 (≈ 68.8 µM)
CO[C@H]1/C=C/O[C@@]2(C)Oc3c(C)c(O)c4c(O)c(c(/C=N/N5CCN(C)CC5)c(O)c4c3C2=O)NC(=O)/C(C)=C\C=C\[C@H](C)[C@H](O)[C@@H](C)[C@@H](O)[C@@H](C)[C@H](OC(C)=O)[C@@H]1C [RIFAMPIN] | > 158 | –
